From paper PMC6331809, “Antigenotoxicity and Tumor Growing Inhibition by Leafy Brassica carinata and Sinigrin” (Molecules, 2015)
In brackets after ≈: the same amount, converted by molar mass. Several values for one entry are separate records, joined by “and”; a condition that tells them apart may be missing. Identical values can stand only once. Like-named read-outs stand apart in the source and are kept apart here. Marks after values point to notes of the source that are not given here.

How the values were obtained:
Drosophila melanogaster [1] = assay: Toxicity in SMART: Drosophila adult survival after simple and combined (H2O2) treatment; type: in vivo; settings: for Survival, average: average over all assayed concentrations
Protocol: Toxicity (T) was determined as percentage of survival adults with respect to 450 untreated 72 h old larvae from three independent experiments: T = (N° of emerging individuals in treatment/N° of emerging individuals in the negative control) × 100(1)

Drosophila melanogaster [2] = tested on: Drosophila melanogaster
Protocol: (§1) The genotoxic and antigenotoxic activity of lyophilized leaves of B. carinata and sinigrin were evaluated by the Drosophila Somatic Mutation and Recombination Test (SMART). Drosophila is a holometabolous animal which in vivo experiments permit to make analogies with humans due to the high percentage of homologue genes in common with human. […] Both characteristics make this test an optimal protocol in order to test molecules and complex mixtures with health benefices for humans. Two different D. melanogaster strains carrying visible wing genetic markers on the left arm of chromosome 3 were used: the flare (flr) strain flr^3/ln (3LR) TM3, Bd^s and the multiple wing-hair (mwh) strain mwh/mwh. These markers were selected due to their position in the Drosophila genome, covering a wide portion of one of their four chromosomes. Specifically, they affect the wing imaginal disks which present more cells with a uniform growth during larvae development than other Drosophila imaginal disks. This fact makes possible to detect easily a high number of mutations, somatic recombinations and disjunctions produced in the Drosophila DNA during all treatment periods by wing microscopic observation. In this sense, these markers are present in other genetic background (strains) but crosses produce mutations with a basal mutation rate too high and disturbing hair anomalous pattems. The marker flare (flr^3, 3_38.3) is a recessive mutation which produces individual wing hairs that are malformed. The flr^3 allele is a zygotic recessive lethal, which is maintained in the strain over the balancer chromosome TM3 (TM3, Bd^S: Third Multiple 3, Beaded-Serrate). The marker multiple wing hairs (mwh, 3_0.3) is a recessive mutation that is viable in homozygous flies, producing multiple hairs per cell instead of the wild type single-hair trichome. Two types of crosses were used: the standard cross with flr^3/TM3, Bd^S females mated to mwh/mwh males and the reciprocal cross.
(§2) Hybrid eggs from crossing optimally fertile flies were collected over an 8-h period. Emerged larvae, 72 ± 4 h later, were cleaned up from remaining feeding medium, using sterile distilled water, and subsequently were transferred into treatment vials. These vials contained tested conditions which consisted of 0.85 g of Drosophila Instant Medium (Formula 4–24, Carolina Biological Supply, Burlington, NC, USA) wetted with 4 mL of a mixture of distilled-sterile water and the appropriate concentration of lyophilized plant or the single compound sinigrin.
(§3) Genotoxicity/antigenotoxicity tests were performed following the standard protocol. Antigenotoxicity tests were carried out by mixing the genotoxin hydrogen peroxide (H2O2, Sigma-Aldrich) with the plant or single compound in appropriate concentrations.
(§4) The groups consisting of approximately 100 larvae each were: (i) negative control (distilled water); (ii) mutagenic positive control (H2O2 0.12 M); (iii) 3 vials with increasing concentrations of B. carinata (1.25, 2.5, and 5 mg·mL^−1); and (iv) 4 vials with increasing concentrations of sinigrin (0.6, 1.2, 2.4 and 4.8 mM). Sinigrin concentrations were chosen on the basis of the sinigrin content of the B. carinata sample used in this study.
(§5) Larvae were fed on both treated and control mediums until pupation (about 48 h). After emergence, resulting adult flies were collected from the treatment vials, sacrificed under CO2 narcotization and stored in a 70% ethanol solution in sterile water.
(§6) Transheterozygous wings (mwhflr^+/mwh^+ flr^3) were mounted and wing hair mutations (spots) were scored. Both dorsal and ventral surfaces of the wings containing 22,000 cells were screened under a photonic microscope (Nikon, Amsterdam, Netherlands) at 400× magnification for the occurrence of individual spots (mwh or flr phenotype) or twin spots (mwh clone adjacent to flr clone).

Drosophila melanogaster [3] = assay: Antigenotoxicity in SMART, combined treatment with H2O2; type: in vivo; settings: for Large single spots > 2 cells; m = 5: mutation rate (number of spots) / Small single spots 1–2 cells; m = 2: diagnosis / Small single spots 1–2 cells; m = 2: mutation rate (number of spots) / Total spots m = 2: diagnosis / Total spots m = 2: mutation rate (number of spots) / Twin spots m = 5: mutation rate (number of spots): combined with 0.12 M H2O2; as to Small single spots 1–2 cells; m = 2: diagnosis: key: + (positive); − (negative); as to Total spots m = 2: diagnosis: key: + (positive); − (negative)
Protocol: as §1, §2, §3, §4, §5, §6

Caenorhabditis elegans = tested on: Caenorhabditis elegans; design: method as in PMID 19277288; settings: C. elegans, cited from earlier work
[4] = tested on: hamster ovary cell line (CHO); settings: cited from earlier work
[5] = tested on: induced hepatocarcinogenesis in rats; design: method as in PMID 2387027; dose or concentration left out as unconfirmed; settings: orally in a diet; cited from earlier work
[6] = sinigrin 0.60 mM, simple treatment
[7] = sinigrin 1.20 mM, simple treatment
[8] = sinigrin 2.40 mM, simple treatment
[9] = sinigrin 4.81 mM, simple treatment

Compound: C=CCC(=NOS(=O)(=O)O)S[C@@H]1O[C@H](CO)[C@@H](O)[C@H](O)[C@H]1O (stereo in doubt) [Sinigrin, sinigrin]
- Survival, average (Drosophila melanogaster [1]; combined treatments with 0.12 M H2O2): 38.11%
- Survival, average (Drosophila melanogaster [1]; simple treatments): 68.27%
- Survival (Drosophila melanogaster [1]; sinigrin 0.60 mM, combined with 0.12 M H2O2): 25.56 * %
- Survival (Drosophila melanogaster [1]; sinigrin 0.60 mM, combined with 0.12 M H2O2, listed as sinigrin): 25.56%
- Survival (Drosophila melanogaster [1]; [6]): 56.44 * %
- Survival (Drosophila melanogaster [1]; sinigrin 1.20 mM, combined with 0.12 M H2O2): 19.33 * %
- Survival (Drosophila melanogaster [1]; sinigrin 1.20 mM, combined with 0.12 M H2O2, listed as sinigrin): 19.33%
- Survival (Drosophila melanogaster [1]; [7]): 78.22 * %
- Survival (Drosophila melanogaster [1]; sinigrin 1.20 mM, simple treatment, listed as sinigrin): 78.22%
- Survival (Drosophila melanogaster [1]; sinigrin 2.40 mM, combined with 0.12 M H2O2): 47.33 * %
- Survival (Drosophila melanogaster [1]; [8]): 61.56 * %
- Survival (Drosophila melanogaster [1]; sinigrin 4.81 mM, combined with 0.12 M H2O2): 60.22 * %
- Survival (Drosophila melanogaster [1]; sinigrin 4.81 mM, combined with 0.12 M H2O2, listed as sinigrin): 60.22%
- Survival (Drosophila melanogaster [1]; [9]): 76.89 * %
- Reduction of survival (Drosophila melanogaster [1]; survival average, combined (H2O2) against simple treatments): ~ 30%
- Total mutation rate, average (Drosophila melanogaster [2]; average over all doses, simple treatment): 0.15 spots per wing
- Large single spots > 2 cells; m = 5: diagnosis (Drosophila melanogaster [2]; [6]): −
- Large single spots > 2 cells; m = 5: mutation rate (number of spots) (Drosophila melanogaster [2]; [6]): 0.03 (1) spots per wing
- Small single spots 1–2 cells; m = 2: diagnosis (Drosophila melanogaster [2]; [6]): −
- Small single spots 1–2 cells; m = 2: mutation rate (number of spots) (Drosophila melanogaster [2]; [6]): 0.18 (7) spots per wing
- Total spots m = 2: diagnosis (Drosophila melanogaster [2]; [6]): −
- Total spots m = 2: mutation rate (number of spots) (Drosophila melanogaster [2]; [6]): 0.20 (8) spots per wing
- Twin spots m = 5: mutation rate (number of spots) (Drosophila melanogaster [2]; [6]): 0 spots per wing
- Large single spots > 2 cells; m = 5: diagnosis (Drosophila melanogaster [2]; [7]): −
- Large single spots > 2 cells; m = 5: mutation rate (number of spots) (Drosophila melanogaster [2]; [7]): 0.03 (1) spots per wing
- Small single spots 1–2 cells; m = 2: diagnosis (Drosophila melanogaster [2]; [7]): −
- Small single spots 1–2 cells; m = 2: mutation rate (number of spots) (Drosophila melanogaster [2]; [7]): 0.12 (4) spots per wing
- Total spots m = 2: diagnosis (Drosophila melanogaster [2]; [7]): −
- Total spots m = 2: mutation rate (number of spots) (Drosophila melanogaster [2]; [7]): 0.18 (6) spots per wing
- Twin spots m = 5: diagnosis (Drosophila melanogaster [2]; [7]): −
- Twin spots m = 5: mutation rate (number of spots) (Drosophila melanogaster [2]; [7]): 0.03 (1) spots per wing
- Large single spots > 2 cells; m = 5: diagnosis (Drosophila melanogaster [2]; [8]): −
- Large single spots > 2 cells; m = 5: mutation rate (number of spots) (Drosophila melanogaster [2]; [8]): 0.03 (1) spots per wing
- Small single spots 1–2 cells; m = 2: diagnosis (Drosophila melanogaster [2]; [8]): −
- Small single spots 1–2 cells; m = 2: mutation rate (number of spots) (Drosophila melanogaster [2]; [8]): 0.08 (3) spots per wing
- Total spots m = 2: diagnosis (Drosophila melanogaster [2]; [8]): −
- Total spots m = 2: mutation rate (number of spots) (Drosophila melanogaster [2]; [8]): 0.11 (4) spots per wing
- Twin spots m = 5: mutation rate (number of spots) (Drosophila melanogaster [2]; [8]): 0 spots per wing
- Large single spots > 2 cells; m = 5: mutation rate (number of spots) (Drosophila melanogaster [2]; [9]): 0 spots per wing
- Small single spots 1–2 cells; m = 2: diagnosis (Drosophila melanogaster [2]; [9]): −
- Small single spots 1–2 cells; m = 2: mutation rate (number of spots) (Drosophila melanogaster [2]; [9]): 0.14 (4) spots per wing
- Total spots m = 2: diagnosis (Drosophila melanogaster [2]; [9]): −
- Total spots m = 2: mutation rate (number of spots) (Drosophila melanogaster [2]; [9]): 0.14 (4) spots per wing
- Twin spots m = 5: mutation rate (number of spots) (Drosophila melanogaster [2]; [9]): 0 spots per wing
- Large single spots > 2 cells; m = 5: mutation rate (number of spots) (Drosophila melanogaster [3]; sinigrin 0.60 mM): 0 spots per wing
- Small single spots 1–2 cells; m = 2: diagnosis (Drosophila melanogaster [3]; sinigrin 0.60 mM): −
- Small single spots 1–2 cells; m = 2: mutation rate (number of spots) (Drosophila melanogaster [3]; sinigrin 0.60 mM): 0.19 (6) spots per wing
- Total spots m = 2: diagnosis (Drosophila melanogaster [3]; sinigrin 0.60 mM): −
- Total spots m = 2: mutation rate (number of spots) (Drosophila melanogaster [3]; sinigrin 0.60 mM): 0.19 (6) spots per wing
- Twin spots m = 5: mutation rate (number of spots) (Drosophila melanogaster [3]; sinigrin 0.60 mM): 0 spots per wing
- Large single spots > 2 cells; m = 5: mutation rate (number of spots) (Drosophila melanogaster [3]; sinigrin 1.20 mM): 0 spots per wing
- Small single spots 1–2 cells; m = 2: diagnosis (Drosophila melanogaster [3]; sinigrin 1.20 mM): −
- Small single spots 1–2 cells; m = 2: mutation rate (number of spots) (Drosophila melanogaster [3]; sinigrin 1.20 mM): 0.20 (4) spots per wing
- Total spots m = 2: diagnosis (Drosophila melanogaster [3]; sinigrin 1.20 mM): −
- Total spots m = 2: mutation rate (number of spots) (Drosophila melanogaster [3]; sinigrin 1.20 mM): 0.20 (4) spots per wing
- Twin spots m = 5: mutation rate (number of spots) (Drosophila melanogaster [3]; sinigrin 1.20 mM): 0 spots per wing
- Large single spots > 2 cells; m = 5: mutation rate (number of spots) (Drosophila melanogaster [3]; sinigrin 2.40 mM): 0 spots per wing
- Small single spots 1–2 cells; m = 2: diagnosis (Drosophila melanogaster [3]; sinigrin 2.40 mM): −
- Total spots m = 2: diagnosis (Drosophila melanogaster [3]; sinigrin 2.40 mM): −
- Twin spots m = 5: mutation rate (number of spots) (Drosophila melanogaster [3]; sinigrin 2.40 mM): 0 spots per wing
- Percentage of inhibition of clone formation (Drosophila melanogaster [3]; sinigrin 4.81 mM, against H2O2): 84.61%
- Large single spots > 2 cells; m = 5: mutation rate (number of spots) (Drosophila melanogaster [3]; sinigrin 4.81 mM): 0 spots per wing
- Small single spots 1–2 cells; m = 2: diagnosis (Drosophila melanogaster [3]; sinigrin 4.81 mM): −
- Small single spots 1–2 cells; m = 2: mutation rate (number of spots) (Drosophila melanogaster [3]; sinigrin 4.81 mM): 0.10 (1) spots per wing
- Total spots m = 2: diagnosis (Drosophila melanogaster [3]; sinigrin 4.81 mM): −
- Total spots m = 2: mutation rate (number of spots) (Drosophila melanogaster [3]; sinigrin 4.81 mM): 0.10 (1) spots per wing
- Twin spots m = 5: mutation rate (number of spots) (Drosophila melanogaster [3]; sinigrin 4.81 mM): 0 spots per wing
- Non-toxic up to the concentration (Caenorhabditis elegans): ≤ 80 g/L
- LC50 (Caenorhabditis elegans; with addition of myrosinase): 500 µg/mL (≈ 1390 µM)
- Chromosome aberrations / sister chromatid exchanges ([4]; at concentrations of 2 mg·mL^−1): induced chromosome aberrations but not sister chromatid exchanges
- Genotoxicity and cytotoxicity [4]: neither genotoxic nor cytotoxic
- Effect on induced hepatocarcinogenesis [5]: able to inhibit induced hepatocarcinogenesis

Compound: C=CCN=C=S [AITC, allyl-ITCs, reference compound]
- Lethal concentration value (Caenorhabditis elegans): 0.04 g/L
- Genotoxicity ([4]; at high cytotoxic doses): not genotoxic

Compound: OO [H2O2, hydrogen peroxide, reference compound]
- Survival (Drosophila melanogaster [1]; H2O2 0.12 M, simple treatment, emerged adults vs H2O control): 37.78% and 37.78 * %
- Large single spots > 2 cells; m = 5: diagnosis (Drosophila melanogaster [2]; in vivo): −
- Large single spots > 2 cells; m = 5: mutation rate (number of spots) (Drosophila melanogaster [2]; in vivo): 0.07 (11) spots per wing
- Small single spots 1–2 cells; m = 2: diagnosis (Drosophila melanogaster [2]; in vivo): +
- Small single spots 1–2 cells; m = 2: mutation rate (number of spots) (Drosophila melanogaster [2]; in vivo): 0.60 (94) spots per wing
- Total spots m = 2: diagnosis (Drosophila melanogaster [2]; in vivo): +
- Total spots m = 2: mutation rate (number of spots) (Drosophila melanogaster [2]; in vivo): 0.65 (109) spots per wing
- Twin spots m = 5: diagnosis (Drosophila melanogaster [2]; in vivo): −
- Twin spots m = 5: mutation rate (number of spots) (Drosophila melanogaster [2]; in vivo): 0.06 (4) spots per wing
